Measured values taken from patent publication US20150057317A1, “GABR-A2 DIAGNOSTIC” (AstraZeneca AB, priority 2011, published 2015).

How the values were obtained:
[1] = target: NR1A/2A subtype of the NMDA receptor (Homo sapiens, UniProt Q05586+Q12879); conditions: cited from earlier work
[2] = tested on: patients with depression (poor responders to medications used in the treatment of depression); test: Phase II study in depression, MADRS response by GABR-A2 SNP genotype; type: in vivo, human; conditions: for Additive genetic effect of minor allele on change in MADRS total score: treatment group
From the text: Genomic DNA samples were collected from individuals enrolled in a Phase 11 study of COMPOUND A (total number of patients in the study was 152). The Phase II study was designed to measure the efficacy of COMPOUND A in the treatment of depression. Patients were selected for enrolment in the aforementioned Phase II study on the basis of their prior treatment history which defined them as poor responders to medications used in the treatment of depression. Common genetic variations (single nucleotide polymorphisms, SNPs) in genes encoding brain derived neurotrophic factor (BDNF) and the alpha-2 subunit of the GABAA receptor (GABR-A2) were tested using TaqMan® assays to measure their influence on the response to treatment for depression with COMPOUND A (an N-methyl-D-aspartate (NMDA) antagonist). Montgomery-Åsberg Depression Rating Scale (MADRS; Montgomery SA, Asberg M (April 1979). “A new depression scale designed to be sensitive to change”. British Journal of Psychiatry 134 (4): 382-89) was used as a measurement of treatment response. Thirty-two SNPs were selected for genotyping in GABR-A2 and six SNPs in BDNF.
However, the results from the GABR-A2 gene did indicate an influence on change in MADRS from baseline for a number of SNPs, with the rs3756007 SNP showing the strongest association. Table 1 lists those genetic variations tested for which, on average, the minor allele positively influenced change in MADRS after treatment with COMPOUND A. The P value from the patients treated with the drug (treatment group) is also shown (therapeutic_pvalue).
TaqMan® assays were used to detect the particular SNPs within the target genes. Each TaqMan® assay is specific for a given mutation or allele, i.e. designed to detect an alternate base relative to another base at a given position. each TaqMan® assay contains sequence-specific forward and reverse primers to amplify the polymorphic sequence of interest in the target gene along with TaqMan® probes labelled with different fluorescent tags to identify the target base (SNP). The TaqMan® assays were ordered from Applied Biosystems® and where possible Pre-Designed SNP Genotyping Assays were used. Each of the GABR-A2 SNPs showing association with an influence on the response to treatment for depression with COMPOUND A were detected using the commercially available Pre-Designed SNP Genotyping Assays.
For each SNP assay, genomic DNA was extracted from the clinical sample and the TaqMan® assay was carried out using the primers in Table 2. For the TaqMan® reaction approximately 10 ng of genomic DNA was used, in a total reaction volume of 2 ul. The reaction used TaqMan® Genotyping Master Mix (Applied Biosystems®, part number 4381657). The TaqMan® Genotyping Master Mix was diluted 1:1 with deionised water and the TaqMan® assay used at 80× concentration. The reaction was then securely sealed before Thermal Cycling. Cycle conditions: 95° C. for 10 minutes followed by 40 cycles of 92° C. for 15 seconds, 60° C. for 60 seconds in a Thermal Cycler instrument (KBiosystems DT-108 Thermal Cycler). The plate was then analysed on the Applied Biosystems® 7900HT Sequence Detection System using the pre-programmed “Allelic Discrimination” analysis in the Applied Biosystems® SDS v2.4 Software.

[3] = tested on: human volunteers and patients; conditions: cited from earlier work
[4] = tested on: patients with MDD; conditions: cited from earlier work

Chain of NR1A/2A subtype of the NMDA receptor (Q12879 23-1464, other chains not shown): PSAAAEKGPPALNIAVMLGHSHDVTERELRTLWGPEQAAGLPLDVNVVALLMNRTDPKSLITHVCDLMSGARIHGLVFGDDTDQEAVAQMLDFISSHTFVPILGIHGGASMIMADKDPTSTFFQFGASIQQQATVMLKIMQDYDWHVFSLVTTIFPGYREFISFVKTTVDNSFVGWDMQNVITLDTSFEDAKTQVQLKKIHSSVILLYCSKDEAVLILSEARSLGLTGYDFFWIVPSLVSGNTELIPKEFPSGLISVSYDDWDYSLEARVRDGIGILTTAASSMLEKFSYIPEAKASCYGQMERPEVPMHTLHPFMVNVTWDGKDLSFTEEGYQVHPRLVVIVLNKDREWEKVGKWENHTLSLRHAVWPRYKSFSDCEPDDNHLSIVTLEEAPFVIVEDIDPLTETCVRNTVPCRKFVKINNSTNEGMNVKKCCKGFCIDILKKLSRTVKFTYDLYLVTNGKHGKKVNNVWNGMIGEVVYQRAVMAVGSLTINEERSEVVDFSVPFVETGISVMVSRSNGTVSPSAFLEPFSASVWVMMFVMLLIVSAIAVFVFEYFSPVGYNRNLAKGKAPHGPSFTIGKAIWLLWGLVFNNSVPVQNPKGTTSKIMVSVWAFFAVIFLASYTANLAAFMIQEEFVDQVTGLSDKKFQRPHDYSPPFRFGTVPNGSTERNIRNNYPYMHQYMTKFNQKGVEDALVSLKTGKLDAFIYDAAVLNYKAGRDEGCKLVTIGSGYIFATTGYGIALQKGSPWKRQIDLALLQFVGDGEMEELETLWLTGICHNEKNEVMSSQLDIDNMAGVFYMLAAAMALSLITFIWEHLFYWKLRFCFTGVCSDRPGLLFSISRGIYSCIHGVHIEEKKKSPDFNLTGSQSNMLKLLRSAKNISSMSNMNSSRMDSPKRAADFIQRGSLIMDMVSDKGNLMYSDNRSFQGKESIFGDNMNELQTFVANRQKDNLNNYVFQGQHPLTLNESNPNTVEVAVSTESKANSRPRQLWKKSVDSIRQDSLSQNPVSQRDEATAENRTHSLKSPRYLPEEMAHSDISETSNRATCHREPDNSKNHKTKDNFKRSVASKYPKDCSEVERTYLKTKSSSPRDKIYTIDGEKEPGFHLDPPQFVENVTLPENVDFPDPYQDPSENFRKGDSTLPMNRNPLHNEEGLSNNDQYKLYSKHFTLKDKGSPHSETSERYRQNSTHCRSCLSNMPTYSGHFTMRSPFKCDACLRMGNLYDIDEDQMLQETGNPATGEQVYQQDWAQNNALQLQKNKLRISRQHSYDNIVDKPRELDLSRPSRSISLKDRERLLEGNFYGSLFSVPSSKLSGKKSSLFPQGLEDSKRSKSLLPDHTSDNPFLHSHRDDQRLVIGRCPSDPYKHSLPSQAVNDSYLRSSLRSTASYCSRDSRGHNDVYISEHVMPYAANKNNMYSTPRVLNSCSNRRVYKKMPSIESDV

SMILES	IC50 [1] [nM]	Additive genetic effect of minor allele on change in MADRS total score ([2]; SNP rs1372472, minor allele T, therapeutic P value 0.0108)	Additive genetic effect of minor allele on change in MADRS total score ([2]; SNP rs3756007, minor allele C, therapeutic P value 0.0021)	Additive genetic effect of minor allele on change in MADRS total score ([2]; SNP rs11503016, minor allele T, therapeutic P value 0.0374)	Additive genetic effect of minor allele on change in MADRS total score ([2]; SNP rs17537359, minor allele C, therapeutic P value 0.0038)	improvement in minor allele carriers versus major allele homozygote ([2]; minor allele at rs3756007, rs11503016, rs17537359 and rs1372472, on average)	propensity for causing psychotomimetic effects ([3]; compared with effects found with ketamine exposure)	tolerability ([3]; more than 500 human volunteers and patients)	antidepressant effects [4]
N[C@@H](Cc1ccccn1)c1ccccc1 [COMPOUND A, (S)-1-phenyl-2-(pyridin-2-yl)ethanamine]	350	−4.83	−12.84	−5.33	−9.40	greater improvement	little propensity	very well tolerated	–
CNC1(c2ccccc2Cl)CCCCC1=O (stereo not drawn) [ketamine]	–	–	–	–	–	–	–	–	rapid antidepressant effects
